Experimental data as given in patent US12351576B2, “FGFR inhibitor, preparation method therefor and application thereof” (Abbisko Therapeutics Co., Ltd., priority 2018, dated 2025).
Where two headings read alike, the source gives them in different places.

What was measured:
[1] = biological target: FGFR3 (Homo sapiens (Human), UniProt P22607); assay: In vitro biochemical kinase assay (Caliper Assay), FGFR3; details: enzyme 8 nM, ATP 4.7 μM, 30 minutes; read-out: Enzymatic activity IC50(nM) FGFR3
Sequence of FGFR3 (P22607 23-806): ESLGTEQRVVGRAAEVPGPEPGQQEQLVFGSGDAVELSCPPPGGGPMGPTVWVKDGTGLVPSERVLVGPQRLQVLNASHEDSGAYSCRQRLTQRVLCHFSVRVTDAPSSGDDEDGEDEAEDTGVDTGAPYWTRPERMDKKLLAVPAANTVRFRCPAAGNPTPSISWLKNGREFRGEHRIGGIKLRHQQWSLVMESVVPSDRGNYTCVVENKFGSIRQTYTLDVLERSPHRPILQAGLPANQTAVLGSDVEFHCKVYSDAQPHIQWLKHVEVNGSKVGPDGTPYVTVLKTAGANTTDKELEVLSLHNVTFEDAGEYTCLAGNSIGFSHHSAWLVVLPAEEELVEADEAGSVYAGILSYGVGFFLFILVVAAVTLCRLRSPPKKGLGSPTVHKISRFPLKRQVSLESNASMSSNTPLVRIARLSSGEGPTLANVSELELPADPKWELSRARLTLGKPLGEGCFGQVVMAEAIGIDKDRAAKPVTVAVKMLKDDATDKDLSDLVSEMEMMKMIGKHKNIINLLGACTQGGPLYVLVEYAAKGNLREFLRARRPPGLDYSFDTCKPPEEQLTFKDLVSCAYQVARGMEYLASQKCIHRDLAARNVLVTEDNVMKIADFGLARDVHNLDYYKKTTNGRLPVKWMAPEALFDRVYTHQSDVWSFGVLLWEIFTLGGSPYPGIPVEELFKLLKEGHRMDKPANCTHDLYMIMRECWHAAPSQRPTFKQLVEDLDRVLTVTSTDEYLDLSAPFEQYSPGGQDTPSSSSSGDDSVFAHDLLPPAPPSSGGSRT
Procedure: (§1) I. In Vitro Biochemical Kinase Assay of FGFR 1˜3
(§2) Caliper Assay was used in the present invention to determine the inhibitory activities of the compounds against FGFR1, FGFR2, and FGFR3. The specific experimental procedure was as follows: • 1. The kinase reaction in the present invention was carried out in 384-well plates, the kinase(Carna) at a certain concentration and ATP at a certain concentration and 1 μM of peptide FAM-P22 (GL Biochem, Cat. No. 112393)) was incubated to react for a certain time at 28° C. in a reaction system consisting of 50 mM HEPES, […], 0.0015% Brij-35 and basic kinase buffer; for FGFR1, the enzyme concentration was 0.25 nM and ATP concentration was 382 μM and the reaction time was 20 minutes; for FGFR2, the enzyme concentration was 2.5 nM, ATP concentration was 1 μM, and the reaction time was 40 minutes; for FGFR3, the enzyme concentration was 8 nM, ATP concentration was 4.7 μM, and the reaction time was 30 minutes: • 2. The reaction was terminated with a stop solution (100 mM HEPES, pH 7.5, 0.2% Caliper coating, reagent, 50 mM EDTA and 0.015% Brij35); • 3. The plate with the terminated kinase reaction was transferred to the Caliper workstation to read the data; • 4. the phosphorylated and unphosphorylated peptides were separated by the Caliper microfluid migration shift technique, and the analyte was transferred by a constant buffer flow through the chip, the migration of the substrate peptide was monitored by the labeled fluorescent signal, and the kinase activity was calculated by the amount of the phosphate-based peptide formed. • 5. IC50 was determined by non-linear regression analysis of percent inhibition at different concentration level of the compound.

[2] = tested on: Snu-16 gastric cancer cells (FGFR2 gene amplification); assay: Cell proliferation assay (Cell Titer Glo), Snu-16; format: cell-based; details: Homo sapiens, SNU-16, 72 h, Snu-16 cells, 3 days, CTG, read-out: Cellular IC50 (nM) Sun16
Procedure: (§3) II. Cell Proliferation Assay (Cell Titer Glo(CTG) Assay)
(§4) The FGFR signal pathway dependent inhibitory effect of the compound in the present invention on cell proliferation was assessed by survival test using CTG reagent (Promega, 4G7573). Cell lines representative of a variety of tumor types, including H1581 lung cancer cells (FGFR1 gene amplification), Snu-16 gastric cancer cells (FGFR2 gene amplification), and RT112 bladder carcinoma cells (FGFR3-TACC3 fusion) from Nanjing Cobioer Biosciences, were selected for the assay. The specific experimental procedure was as follows: • 1. 90 μL of cells were seeded into a 96-well plate processed with TCM (Costar 43904), and incubated overnight at 37° C. in a 5% CO2 incubator; afterwards, 10 μL of the culture medium containing the compound at 10 fold of its final concentration was added; • 2. The dose-dependent effect was evaluated by a serial dilution of the test compound, starting from 10 μM or a lower concentration. • 3. The cells were incubated at 37° C. under 5% C02 for 3 days, then added 50 μL CTG, and read the data with Envision (Pelkin Elmer) to quantify the ATP level in the cells. The ATP levels in cells with treatment of inhibitor at a variety of concentrations were compared with those in cells of the control group (in which DMSO was added into the medium) to evaluate the compound percent inhibition of cell proliferation/survival. • 4. The compound half growth inhibitory concentration (IC50) was determined in Graphpad Prism by 4-parameter curve fitting.

[3] = tested on: H1581 lung cancer cells (FGFR1 gene amplification); assay: Cell proliferation assay (Cell Titer Glo), H1581; format: cell-based; details: 3 days, CTG, read-out: Cellular IC50 (nM) H1581
Procedure: as §3, §4

[4] = biological target: FGFR2 (Homo sapiens (Human), UniProt P21802); assay: In vitro biochemical kinase assay (Caliper Assay), FGFR2; details: enzyme 2.5 nM, ATP 1 μM, 40 minutes; read-out: Enzymatic activity IC50(nM) FGFR2
Sequence of FGFR2 (P21802 22-821): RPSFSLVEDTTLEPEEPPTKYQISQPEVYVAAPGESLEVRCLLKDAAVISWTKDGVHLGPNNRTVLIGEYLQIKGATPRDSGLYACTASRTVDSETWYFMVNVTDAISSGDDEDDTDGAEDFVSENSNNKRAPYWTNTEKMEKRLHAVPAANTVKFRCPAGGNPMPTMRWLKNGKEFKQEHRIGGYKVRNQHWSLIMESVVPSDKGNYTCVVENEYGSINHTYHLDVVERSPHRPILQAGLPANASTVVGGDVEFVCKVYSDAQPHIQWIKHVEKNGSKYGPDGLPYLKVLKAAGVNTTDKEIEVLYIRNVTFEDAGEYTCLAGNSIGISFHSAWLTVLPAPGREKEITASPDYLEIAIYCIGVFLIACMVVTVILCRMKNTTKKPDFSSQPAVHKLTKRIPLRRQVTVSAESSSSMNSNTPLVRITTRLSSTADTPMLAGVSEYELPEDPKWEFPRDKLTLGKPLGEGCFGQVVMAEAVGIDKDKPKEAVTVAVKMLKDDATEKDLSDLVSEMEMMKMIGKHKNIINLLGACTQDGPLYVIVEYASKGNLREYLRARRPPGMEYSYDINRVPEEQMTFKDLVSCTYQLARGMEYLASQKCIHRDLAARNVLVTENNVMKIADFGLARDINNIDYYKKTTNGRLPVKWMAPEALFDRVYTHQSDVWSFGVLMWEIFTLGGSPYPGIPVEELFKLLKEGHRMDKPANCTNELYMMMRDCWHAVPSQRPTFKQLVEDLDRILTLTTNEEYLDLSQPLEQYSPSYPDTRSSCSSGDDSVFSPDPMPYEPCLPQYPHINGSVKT
Procedure: as §1, §2

[5] = biological target: FGFR1 (Homo sapiens (Human), UniProt P11362); assay: In vitro biochemical kinase assay (Caliper Assay), FGFR1; details: enzyme 0.25 nM, ATP 382 μM, 20 minutes; read-out: Enzymatic activity IC50(nM) FGFR1
Sequence of FGFR1 (P11362 22-822): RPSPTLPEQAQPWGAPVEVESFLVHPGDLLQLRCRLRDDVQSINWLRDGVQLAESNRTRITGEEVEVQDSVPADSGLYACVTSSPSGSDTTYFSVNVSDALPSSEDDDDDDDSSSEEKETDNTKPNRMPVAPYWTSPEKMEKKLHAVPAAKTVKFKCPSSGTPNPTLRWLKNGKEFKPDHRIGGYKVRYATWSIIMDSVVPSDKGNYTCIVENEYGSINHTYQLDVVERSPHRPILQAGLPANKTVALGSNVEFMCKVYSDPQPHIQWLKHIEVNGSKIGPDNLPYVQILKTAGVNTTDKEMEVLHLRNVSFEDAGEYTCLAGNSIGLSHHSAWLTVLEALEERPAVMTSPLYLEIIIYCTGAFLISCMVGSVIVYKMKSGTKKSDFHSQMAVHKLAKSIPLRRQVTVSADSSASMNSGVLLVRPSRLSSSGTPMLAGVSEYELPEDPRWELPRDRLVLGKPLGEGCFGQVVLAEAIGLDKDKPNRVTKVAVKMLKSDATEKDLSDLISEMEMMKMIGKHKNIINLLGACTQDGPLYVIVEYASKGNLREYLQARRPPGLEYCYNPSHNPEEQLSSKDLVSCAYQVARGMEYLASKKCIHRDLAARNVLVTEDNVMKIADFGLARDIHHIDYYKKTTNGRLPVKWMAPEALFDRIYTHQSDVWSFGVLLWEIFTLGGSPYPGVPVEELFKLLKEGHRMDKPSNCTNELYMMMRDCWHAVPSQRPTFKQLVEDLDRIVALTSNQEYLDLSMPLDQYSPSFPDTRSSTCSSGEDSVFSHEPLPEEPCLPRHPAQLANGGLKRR
Procedure: as §1, §2

[6] = tested on: RT112 bladder carcinoma cells (FGFR3-TACC3 fusion); assay: Cell proliferation assay (Cell Titer Glo), RT112; format: cell-based; details: Homo sapiens, RT-112, 72 h, 3 days, CTG, read-out: Cellular IC50 (nM) RT112
Procedure: as §3, §4

SMILES | IC50 [1] [nM] | IC50 [2] [nM] | IC50 [3] [nM] | IC50 [4] [nM] | IC50 [5] [nM] | IC50 [6] [nM] | IC50 ([3]; Homo sapiens, NCI-H1581, 72 h) [nM] | IC50 ([2]; numeric values) [nM] | IC50 ([6]; numeric values) [nM]
CCn1c(=O)c(-c2c(Cl)c(OC)cc(OC)c2Cl)cc2cnc(-c3cnn(CCN4CCOCC4)c3)cc21 [Example 10, 3-(2,6-dichloro-3,5-dimethoxyphenyl)-1-ethyl-7-(1-(2-morpholinoethyl)-1H-pyrazol-4-yl)-1,6-naphthyridin-2(1H)-one] | ≤ 5 | 10 to 50 | – | ≤ 5 | 10 to 50 | 10 to 50 | 50 to 500 | – | –
COc1cc(OC)c(Cl)c(-c2cc3cnc(-c4cnn(CCN5CCOCC5)c4)cc3n(C)c2=O)c1Cl [Example 15, 3-(2,6-dichloro-3,5-dimethoxyphenyl)-1-methyl-7-(1-(2-morpholinoethyl)-1H-pyrazol-4-yl)-1,6-naphthyridin-2(1H)-one] | 50 to 500 | 10 to 50 | – | 5 to 10 | 50 to 500 | 50 to 500 | 50 to 500 | – | –
COc1cc(OC)c(F)c(-c2cc3cnc(-c4cnn(C)c4)cc3n(C3CCOC3)c2=O)c1F (centres unmarked) [Example 28, 3-(2,6-difluoro-3,5-dimethoxyphenyl)-7-(1-methyl-1H-pyrazol-4-yl)-1-(tetrahydrofuran-3-yl)-1,6-naphthyridin-2(1H)-one] | – | ≤ 5 | – | ≤ 5 | ≤ 5 | ≤ 5 | 10 to 50 | – | –
COc1cc(OC)c(F)c(-c2cc3cnc(-c4cnn(CCN5CCOCC5)c4)cc3n(C3CCOC3)c2=O)c1F (centres unmarked) [Example 35, 3-(2,6-difluoro-3,5-dimethoxyphenyl)-7-(1-(2-morpholinoethyl)-1H-pyrazol-4-yl)-1-(tetrahydrofuran-3-yl)-1,6-naphthyridin-2(1H)-one] | – | 5 to 10 | – | – | – | ≤ 5 | 50 to 500 | – | –

Now from value to molecule:

IC50 [1] [nM] | IC50 [2] [nM] | IC50 [3] [nM] | IC50 [4] [nM] | IC50 [5] [nM] | IC50 [6] [nM] | IC50 ([3]; Homo sapiens, NCI-H1581, 72 h) [nM] | IC50 ([2]; numeric values) [nM] | IC50 ([6]; numeric values) [nM] | SMILES
≤ 5 | 5 to 10 | 50 to 500 | ≤ 5 | 5 to 10 | – | – | – | – | COc1cc(OC)c(Cl)c(-c2cc3cnc(-c4cnn(C)c4)cc3n(C3CCOC3)c2=O)c1Cl (stereo in doubt) [Example 21, (R)-3-(2,6-dichloro-3,5-dimethoxyphenyl)-7-(1-methyl-1H-pyrazol-4-yl)-1-(tetrahydrofuran-3-yl)-1,6-naphthyridin-2(1H)-one]
50 to 500 | 10 to 50 | – | 5 to 10 | 10 to 50 | 50 to 500 | 50 to 500 | – | – | COc1cc(OC)c(Cl)c(-c2cc3cnc(-c4cnn(C)c4)cc3n(C)c2=O)c1Cl [Example 2, 3-(2,6-dichloro-3,5-dimethoxyphenyl)-1-methyl-7-(1-methyl-1H-pyrazol-4-yl)-1,6-naphthyridin-2(1H)-one]
– | 10 to 50 | – | 10 to 50 | 50 to 500 | 50 to 500 | 50 to 500 | – | – | COc1cc(OC)c(Cl)c(-c2cc3cnc(-c4ccc(C5(C#N)CCC5)nc4)cc3n(C3CCOC3)c2=O)c1Cl (centres unmarked) [Example 16, 1-(5-(3-(2,6-dichloro-3,5-dimethoxyphenyl)-2-oxo-1-(tetrahydrofuran-3-yl)-1,2-dihydro-1,6-naphthyridin-7-yl)pyridin-2-yl)cyclobutane-1-carbonitrile]
– | – | – | ≤ 5 | 5 to 10 | – | 50 to 500 | 10.7 | 2.5 | COc1cc(OC)c(F)c(-c2cc3cnc(-c4ccc(C5(C#N)CCC5)nc4)cc3n(C3CCOC3)c2=O)c1F (centres unmarked) [Example 32, 1-(5-(3-(2,6-difluoro-3,5-dimethoxyphenyl)-2-oxo-1-(tetrahydrofuran-3-yl)-1,2-dihydro-1,6-naphthyridin-7-yl)pyridin-2-yl)cyclobutane-1-carbonitrile]
